According to patent publication US20240287021A1, “QUATERNARY AMMONIUM SALT COMPOUND, PREPARATION METHOD THEREFOR AND USE THEREOF” (YICHANG HUMANWELL PHARMACEUTICAL CO., LTD., priority 2021, published 2024):
Structures can show the parent of a compound that is named as a salt.

Legend:
[1] = test system: sciatic nerve; test: Local anesthetic effect of nerve block (sciatic nerve block model, hot plate test); assay type: in vivo; settings: rat, single dose 5 mL/Kg through right sciatic nerve, example compounds 6 mg/mL (8.6-10.1 mmol/L), hot plate 50°C; for Duration: levobupivacaine hydrochloride 2 mg/mL, MPE at least 50%
Protocol: Three groups of fully acclimatized rats, one in each group, were given to the example compounds and levobupivacaine hydrochloride positive control, respectively.
Solution preparation: 2 mg/mL levobupivacaine hydrochloride injection: 2.670 mL of 7.5 mg/mL levobupivacaine hydrochloride injection (batch number: 92S0702) was pipetted by a pipette and added into a 10 mL volumetric flask, 0.9% NaCl solution was added until the concave liquid level was flush with the scale line, and the volumetric flask was turned upside down to mix the solution well to prepare 2 mg/ml levobupivacaine hydrochloride injection. 6 mg/mL (the molar concentration calculated from the molecular weight of the example compound ranged from 8.6 to 10.1 mmol/L) example compound solution: 19.80 mg of example compound was accurately weighed and added with 3.3 mL of 0.9% NaCl solution to prepare 6 mg/mL example compound solution.
Each rat was administered or control injected at 5 mL/Kg, in a single dose through right sciatic nerve, and thereafter, the rat was placed on a hot plate of a preheated 50±0.1° C. smart hot plate apparatus. The time required for the occurrence of the behavioral phenomena of avoiding thermal stimuli, such as obvious foot lifting and foot licking on the administered side of the rat was recorded, as the hot incubation period. The allowable maximum value of the hot incubation period was controlled at 60 s. If the rat still has no foot licking after 60 s, the hind foot of the rat was lifted manually to avoid tissue injury or hyperalgesia, and 60 s was taken as the hot incubation period of the rat. After each measurement, the hot plate was wiped in time to remove possible urine and feces, and was dried for subsequent testing.
The results of the hot incubation period were expressed with maximum proportionality effect (MPE) and calculated using the following equation:
[formula] • wherein B represents the basic hot incubation period of rats, P represents the allowable maximum hot incubation period, and C represents the hot incubation period at the detection time point.
It was specified that the tested time below 50% of the maximum proportionality effect was determined to be invalid, and the test was stopped if two consecutive tests were both below 50% of the maximum proportionality effect.

[2] = test system: rat subcutaneous infiltration models; test: Subcutaneous infiltration local anesthetic effect (Von Frey stinging stimulus on back skin); assay type: in vivo; settings: SD rats
Protocol: SD rats (half male and half female) with a body weight of 190-210 grams were shaved and sterilized on the back, then a circle with a diameter of about 1.5 cm was drawn on one side of the bare back, and 0.5 mL of a drug-containing solution was subcutaneously injected into the skin in the center: normal saline was used as the solvent, 2 mg/mL levobupivacaine hydrochloride, 9 compounds of the present application were selected, at a concentration of 6 mg/mL (the equivalent molar concentration ranged from 8.6 to 10.1 mmol/L according to the corresponding molecular weights of the example compounds), with 10 rats in each group. Von Frey fiber filaments with 100 g strength were bound to a needle for topical skin stimulation. 1 min after drug injection, response of rats to stinging stimulus was tested. The test sites were six different points of the circle of the administration site, and whether behaviors such as skin contraction and avoidance occurred after stimulus was observed and recorded. Three points in the center of the circle and three points on the periphery of the circle were stimulated separately, and the number of occurrences of skin contraction and avoidance behavior was recorded as N/6. In terms of judgment, if there were 4 or more occurrences of avoidance and skin contraction behaviors, it was considered that the drug was ineffective; if there was a reaction on the periphery (≤3) and no reaction (≥1) in the center, it was considered that the drug was still effective; and if there was a reaction only at the points in the center, it was considered that the drug was ineffective. Each compound was tested with 10 rats.
Since the local anesthesia time longer than 72 hours may cause irreversible nerve injury, we subsequently halved (3 mg/mL) the dose of the compounds with the duration of action greater than 72 hours and then conducted an activity test to determine whether the local anesthesia effect could be restored in the skin infiltration models.

[3] = 0.5 mL subcutaneous on back, compounds 6 mg/mL (8.6-10.1 mmol/L)
[4] = 0.5 mL subcutaneous on back, compounds 6 mg/mL (8.6-10.1 mmol/L), levobupivacaine hydrochloride 2 mg/mL
[5] = subcutaneous on back, compounds 3 mg/mL (4.4-5.1 mmol/L)

CCCC[N+]1(CCCCCN2CCCCC2C(=O)Nc2c(C)cccc2C)CCCCC1C(=O)Nc1c(C)cccc1C (stereo not drawn) [Compound 1]
Duration [1]: 24 h | Onset time [1]: 1 min | Onset time [2, 3]: 1 min | Duration [2, 4]: 55 h

CCCC[N+]1(CCCCCN2CCCCC2C(=O)Nc2ccccc2)CCCCC1C(=O)Nc1c(C)cccc1C (stereo not drawn) [Compound 2]
Duration [1]: 15 h | Onset time [1]: 1 min

CCCC[N+]1(CCCCCN2CCCCC2C(=O)Nc2ccc(F)cc2)CCCCC1C(=O)Nc1c(C)cccc1C (stereo not drawn) [Compound 3]
Duration [1]: 18 h | Onset time [1]: 1 min

CCCC[N+]1(CCCCCN2CCCCC2C(=O)Nc2ccc(C)cc2)CCCCC1C(=O)Nc1c(C)cccc1C (stereo not drawn) [Compound 4]
Duration [1]: 48 h | Onset time [1]: 1 min | Onset time [2, 3]: 1 min | Duration [2, 4]: 72 to 96 h | Duration [2, 5]: 56 h | Onset time [2, 5]: 1 min

CCCC[N+]1(CCCCCN2CCCCC2C(=O)NC2CCCCC2)CCCCC1C(=O)Nc1c(C)cccc1C (stereo not drawn) [Compound 6]
Duration [1]: 12 h | Onset time [1]: 1 min

CCCC[N+]1(CCCCN2CCCCC2C(=O)Nc2ccc(F)cc2)CCCCC1C(=O)Nc1c(C)cccc1C (stereo not drawn) [Compound 7]
Duration [1]: 30 h | Onset time [1]: 1 min | Onset time [2, 3]: 2 min | Duration [2, 4]: 52 h

CCCC[N+]1(CCCCN2CCCCC2C(=O)Nc2ccccc2)CCCCC1C(=O)Nc1c(C)cccc1C (stereo not drawn) [Compound 8]
Duration [1]: 48 h | Onset time [1]: 1 min | Onset time [2, 3]: 1 min | Duration [2, 4]: 72 to 96 h | Duration [2, 5]: 52 h | Onset time [2, 5]: 1 min

CCCC[N+]1(CCCCN2CCCCC2C(=O)NC2CCCCC2)CCCCC1C(=O)Nc1c(C)cccc1C (stereo not drawn) [Compound 9]
Duration [1]: 24 h | Onset time [1]: 1 min

CCC[N+]1(CCCCCN2CCCCC2C(=O)NC2CCCCC2)CCCCC1C(=O)Nc1c(C)cccc1C (stereo not drawn) [Compound 11]
Duration [1]: 11 h | Onset time [1]: 1 min

CCC[N+]1(CCCCCN2CCCCC2C(=O)Nc2ccc(C)cc2)CCCCC1C(=O)Nc1c(C)cccc1C (stereo not drawn) [Compound 12]
Duration [1]: 48 h | Onset time [1]: 1 min | Onset time [2, 3]: 1 min | Duration [2, 4]: 72 to 96 h | Duration [2, 5]: 60 h | Onset time [2, 5]: 1 min

CCCC[N+]1(CCCCN2CCCCC2C(=O)Nc2c(C)cccc2C)CCC[C@@H]1C(=O)Nc1c(C)cccc1C (stereo partly drawn) [Compound 17]
Duration [1]: 12 to 24 h | Onset time [1]: 1 min

CCCC[N+]1(CCCCN2CCCCC2C(=O)Nc2ccc(C)cc2)CCC[C@@H]1C(=O)Nc1c(C)cccc1C (stereo partly drawn) [Compound 18]
Duration [1]: 20 h | Onset time [1]: 1 min

CCCC[N+]1(CCCCN2CCCCC2C(=O)Nc2ccc(C(F)(F)F)cc2)CCC[C@@H]1C(=O)Nc1c(C)cccc1C (stereo partly drawn) [Compound 20]
Duration [1]: 12 to 24 h | Onset time [1]: 1 min

CCCC[N+]1(CCCCN2CCCCC2C(=O)Nc2ccc(F)cc2)CCC[C@@H]1C(=O)Nc1c(C)cccc1C (stereo partly drawn) [Compound 21]
Duration [1]: 24 to 48 h | Onset time [1]: 1 min | Onset time [2, 3]: 1 min | Duration [2, 4]: 57 h

CCCC[N+]1(CCCCCN2CCCCC2C(=O)Nc2c(C)cccc2C)CCC[C@@H]1C(=O)Nc1c(C)cccc1C (stereo partly drawn) [Compound 22]
Duration [1]: 24 to 48 h | Onset time [1]: 1 min | Onset time [2, 3]: 1 min | Duration [2, 4]: 60 h

CCCC[N+]1(CCCCN2CCCCC2C(=O)Nc2c(C)cccc2C)CCC[C@@H]1C(=O)Nc1c(C)cc(C)cc1C (stereo partly drawn) [Compound 27]
Duration [1]: 12 to 24 h | Onset time [1]: 1 min

CCCC[N+]1(CCCCN2CCCCC2C(=O)Nc2ccc(C)cc2)CCC[C@@H]1C(=O)Nc1c(C)cc(C)cc1C (stereo partly drawn) [Compound 28]
Duration [1]: 12 to 24 h | Onset time [1]: 1 min

CCCC[N+]1(CCCCN2CCCCC2C(=O)Nc2ccc(F)cc2)CCC[C@@H]1C(=O)Nc1c(C)cc(C)cc1C (stereo partly drawn) [Compound 29]
Duration [1]: 24 to 48 h | Onset time [1]: 1 min | Onset time [2, 3]: 1 min | Duration [2, 4]: 50 h

CCCC[N+]1(CCCCCN2CCCCC2C(=O)Nc2ccc(F)cc2)CCC[C@@H]1C(=O)Nc1c(C)cc(C)cc1C (stereo partly drawn) [Compound 32]
Duration [1]: 12 to 24 h | Onset time [1]: 1 min

CCCCN1CCCC[C@H]1C(=O)Nc1c(C)cccc1C [Levobupivacaine hydrochloride, reference compound]
Duration [1]: 3 h | Duration [2, 4]: 4 h | Duration [2, 5]: 3 h
